# Laboratory results as given in patent US20140005163A1 (NOVARTIS AG, priority 2010, published 2014).
# Experiments:
# Solubility at pH 6.8 = assay type: physicochemical; conditions: pH 6.8, aqueous buffer, thermodynamic from solid; read-out: solubility
# Procedure, shortened: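 Following the procedure of Zhou et al. (2007), compound solubility was determined at pH 6.8.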
# [1] = system: PKB Ser473 phosphorylation in Rat1-myr-HA-p110 alpha cells; assay: Reverse protein array assay, PKB Ser473 phosphorylation in Rat1-myr-p110 alpha cells; assay type: cell-based; conditions: 0.5 h, pAkt Ser473, 30 minutes compound incubation, read-out: p-PKB IC50
# Procedure, shortened: (§1)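 Rat1 cells expressing myristoylated HA-tagged p110 alpha, beta or delta were plated for at least 20 h, then exposed to 8-step serial compound dilutions (0.2% DMSO final) for 30 min at 37 °C. Lysates were spotted at four dilutions on protein microarrays, and relative fluorescence intensity of phospho-Ser473 PKB was calculated.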
# [2] = system: PKB Ser473 phosphorylation in Rat1-myr-HA-p110 beta cells; assay: Reverse protein array assay, PKB Ser473 phosphorylation in Rat1-myr-p110 beta cells; assay type: cell-based; conditions: 0.5 h, pAkt Ser473, 30 minutes incubation, read-out: p-PKB IC50
# Procedure, shortened: as §1
# [3] = system: PKB Ser473 phosphorylation in Rat1-myr-HA-p110 delta cells; assay: Reverse protein array assay, PKB Ser473 phosphorylation in Rat1-myr-p110 delta cells; assay type: cell-based; conditions: read-out: p-PKB IC50
# Procedure, shortened: as §1
# [4] = system: S6 Ribosomal Protein phosphorylation Ser235/236 in TSC1 null mouse embryo fibroblast (MEF) cells; assay: Reverse protein array assay, S6 Ribosomal Protein phosphorylation Ser235/236 in TSC1 null MEF cells; assay type: cell-based; conditions: 1 h, pS6 ribosomal protein Ser235/236, 60 minutes incubation, read-out: p-S6 IC50
# Procedure, shortened: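 TSC1−/− MEFs, seeded and held ≥20 h at 37 °C/5% CO2, were exposed to 8-step serial compound dilutions (0.02% DMSO final; DMSO vehicle control) for 60 min at 37 °C. Cells were then lysed on ice for 10 min and lysates spotted onto reverse protein array chips.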
Compound,solubility (Solubility at pH 6.8) [µg/mL],IC50 [1] [nM],IC50 [2] [nM],IC50 [3] [nM],IC50 [4] [nM]
"Cc1ncc(-c2ccc3ncc4c(c3c2)n(-c2cn(C)nc2C)c(=O)n4C)cc1N(C)S(C)(=O)=O [Example 75, N-{5-[1-(1,3-Dimethyl-1H-pyrazol-4-yl)-3-methyl-2-oxo-2,3-dihydro-1H-imidazo[4,5-c]quinolin-8-yl]-2-methyl-pyridin-3-yl}-N-methyl-methanesulfonamide]",35,206,383,177,–
"COc1ccc(-c2ccc3ncc4c(c3c2)n(-c2ccnn2C)c(=O)n4C)cn1 [Example 2.2, 8-(6-Methoxy-pyridin-3-yl)-3-methyl-1-(2-methyl-2H-pyrazol-3-yl)-1,3-dihydro-imidazo[4,5-c]quinolin-2-one]",4,159,553,541,–
"Cc1c(-n2c(=O)n(C)c3cnc4ccc(-c5ccc(N(C)C)nc5)cc4c32)cnn1C [Example 4.4, 8-(6-Dimethylamino-pyridin-3-yl)-1-(1,5-dimethyl-1H-pyrazol-4-yl)-3-methyl-1,3-dihydro-imidazo[4,5-c]quinolin-2-one]",–,53,110,155,10
"Cc1nn(C(C)C)cc1-n1c(=O)n(C)c2cnc3ccc(-c4cncc(C(O)(CF)CF)c4)cc3c21 [Example 219, 8-[5-(2-Fluoro-1-fluoromethyl-1-hydroxy-ethyl)-pyridin-3-yl]-1-(1-isopropyl-3-methyl-1H-pyrazol-4-yl)-3-methyl-1,3-dihydro-imidazo[4,5-c]quinolin-2-one]",–,52,497,297,6

# Compounds with a lower IC50 [1], results first:
solubility (Solubility at pH 6.8) [µg/mL],IC50 [1] [nM],IC50 [2] [nM],IC50 [3] [nM],Compound,IC50 [4] [nM]
13,15,15,30,"COc1ncc(-c2ccc3ncc4c(c3c2)n(-c2cn(C(C)C)nc2C)c(=O)n4C)c(OC)n1 [Example 234.3, 8-(2,4-Dimethoxy-pyrimidin-5-yl)-1-(1-isopropyl-3-methyl-1H-pyrazol-4-yl)-3-methyl-1,3-dihydro-imidazo[4,5-c]quinolin-2-one]",2
3,11,61,211,"COc1cc(-c2ccc3ncc4c(c3c2)n(-c2cn(CCO)nc2C)c(=O)n4C)cnc1C [Example 211.1, 1-[1-(2-Hydroxy-ethyl)-3-methyl-1H-pyrazol-4-yl]-8-(5-methoxy-6-methyl-pyridin-3-yl)-3-methyl-1,3-dihydro-imidazo[4,5-c]quinolin-2-one]",21
11,14,–,223,"Cc1nn(CC(=O)N(C)C)c(C)c1-n1c(=O)n(C)c2cnc3ccc(-c4ccc(-n5cccn5)cc4)cc3c21 [Example 51.4, 2-{3,5-Dimethyl-4-[3-methyl-2-oxo-8-(4-pyrazol-1-yl-phenyl)-2,3-dihydro-imidazo[4,5-c]quinolin-1-yl]pyrazol-1-yl}-N,N-dimethyl-acetamide]",11
11,< 5,< 5,41,"CCn1cc(-n2c(=O)n(C)c3cnc4ccc(-c5cncc(NC)c5)cc4c32)c(C)n1 [Example 180.1, 1-(1-Ethyl-3-methyl-1H-pyrazol-4-yl)-3-methyl-8-(5-methylamino-pyridin-3-yl)-1,3-dihydro-imidazo[4,5-c]quinolin-2-one]",–
410,< 5,< 5,< 5,"CCNc1cc(-c2ccc3ncc4c(c3c2)n(-c2cn(C)nc2C)c(=O)n4C)cnc1C [Example 87.1, 1-(1,3-Dimethyl-1H-pyrazol-4-yl)-8-(5-ethylamino-6-methyl-pyridin-3-yl)-3-methyl-1,3-dihydro-imidazo[4,5-c]quinolin-2-one]",–
